From ChEMBL document CHEMBL1201862, “PubChem BioAssay data set” (2004)
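Five compound concentrations were applied to cells in 96-well plates for 48 hours; endpoints were derived by simple linear interpolation of the resulting dose-response curve. Abbreviation: GI50, concentration required for 50% inhibition of growth.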 Active and inactive are the calls of the source. Rule as the data show it: active = GI50 up to about 1.1 µM and inactive = higher.

Legend:
Experiment in all cases: NCI tumour cell line growth inhibition, 48 h
M14 = test system: M14
EKVX = test system: EKVX
ACHN = test system: ACHN
CCRF-CEM = test system: CCRF-CEM
HCT-116 = test system: HCT-116
K562 = test system: K562
SK-MEL-2 = test system: SK-MEL-2
SNB-75 = test system: SNB-75
HT-29 = test system: HT-29
TK-10 = test system: TK-10
HOP-62 = test system: HOP-62
SN12C = test system: SN12C
Malme-3M = test system: Malme-3M
DMS-273 = test system: DMS-273
NCI-H23 = test system: NCI-H23
NCI-H522 = test system: NCI-H522
SR = test system: SR
NCI/ADR-RES = test system: NCI/ADR-RES
MDA-MB-435 = test system: MDA-MB-435
Hs-578T = test system: Hs-578T

Measured: GI50

O=C(Nc1cc(Cl)ccc1Cl)c1cc2ccccc2oc1=O
inactive: M14 > 100 µM | EKVX > 100 µM | ACHN 39.3 µM | CCRF-CEM 46.8 µM | HCT-116 > 100 µM | K562 > 100 µM | SK-MEL-2 > 100 µM | SNB-75 15.7 µM | HT-29 > 100 µM | TK-10 > 100 µM | HOP-62 45.6 µM | SN12C 75.9 µM | Malme-3M 18 µM | DMS-273 98.2 µM | NCI-H23 > 100 µM | NCI-H522 > 100 µM

CCP(C)(=O)CC
inactive: M14 > 100 µM | EKVX > 100 µM | ACHN > 100 µM | CCRF-CEM > 100 µM | HCT-116 > 100 µM | K562 > 100 µM | SK-MEL-2 > 100 µM | SNB-75 > 100 µM | HT-29 > 100 µM | TK-10 > 100 µM | SR > 100 µM | HOP-62 > 100 µM | SN12C > 100 µM | Malme-3M > 100 µM | DMS-273 > 100 µM | NCI-H23 > 100 µM

NC1=NN(c2ccccc2)C(=O)C1C(=O)CCC(=O)Nc1cccc(C(F)(F)F)c1 (stereo not drawn)
inactive: M14 41.2 µM | EKVX > 100 µM | ACHN 23.1 µM | CCRF-CEM > 100 µM | HCT-116 > 100 µM | K562 35.2 µM | SK-MEL-2 > 100 µM | HT-29 > 100 µM | TK-10 > 100 µM | SR > 100 µM | HOP-62 > 100 µM | SN12C > 100 µM | Malme-3M > 100 µM | DMS-273 > 100 µM | NCI-H23 > 100 µM

CC(C)(C)/N=C1/CC(C)(C)c2ccccc2/C(=N\c2ccccc2)S1
inactive: M14 39.5 µM | EKVX 55.5 µM | ACHN 28.2 µM | CCRF-CEM 26.9 µM | HCT-116 33.4 µM | K562 26.4 µM | SK-MEL-2 34.4 µM | SNB-75 32.5 µM | HT-29 35 µM | TK-10 75.9 µM | HOP-62 44.7 µM | SN12C 29.4 µM | Malme-3M 27.9 µM | DMS-273 32.1 µM | NCI-H23 27.7 µM | NCI-H522 15.2 µM

N#CCCC(C#N)(C#N)CCC#N
inactive: M14 > 100 µM | EKVX > 100 µM | ACHN > 100 µM | CCRF-CEM > 10 µM | HCT-116 > 100 µM | K562 > 100 µM | HT-29 > 100 µM | TK-10 > 100 µM | SR > 100 µM | HOP-62 > 100 µM | SN12C > 100 µM | Malme-3M > 100 µM | DMS-273 > 100 µM | NCI-H23 > 100 µM | NCI-H522 > 100 µM

c1ccc(SCCCC(Sc2ccccc2)Sc2ccccc2)cc1
inactive: M14 > 100 µM | EKVX > 100 µM | ACHN > 100 µM | CCRF-CEM > 100 µM | HCT-116 > 100 µM | K562 > 100 µM | SK-MEL-2 > 100 µM | SNB-75 > 100 µM | TK-10 > 100 µM | SR > 100 µM | HOP-62 > 100 µM | SN12C > 100 µM | DMS-273 > 100 µM | NCI-H23 > 100 µM

O=c1[nH]c(=O)n(C2CC(O)C(CO)O2)cc1COCC(F)(F)F (stereo not drawn)
inactive: M14 > 100 µM | EKVX > 100 µM | ACHN > 100 µM | CCRF-CEM 86.5 µM | K562 > 100 µM | SK-MEL-2 > 100 µM | SNB-75 > 100 µM | HT-29 > 100 µM | TK-10 > 100 µM | HOP-62 > 100 µM | SN12C > 100 µM | Malme-3M > 100 µM | DMS-273 > 100 µM | NCI-H23 > 100 µM | NCI-H522 > 100 µM

C=C1CCC2[C@](C)(CCC[C@]2(C)C(=O)O)[C@@H]1CCc1ccoc1 (stereo partly drawn)
inactive: M14 41.1 µM | EKVX 34.3 µM | ACHN 41.7 µM | CCRF-CEM 40.7 µM | NCI/ADR-RES 38.5 µM | HCT-116 33.7 µM | K562 53.5 µM | SK-MEL-2 29.4 µM | SNB-75 67.3 µM | HT-29 24.2 µM | TK-10 24.2 µM | SR 27 µM | HOP-62 40.6 µM | MDA-MB-435 41.3 µM | SN12C 33.5 µM | Malme-3M 32.2 µM | NCI-H23 21.4 µM | NCI-H522 68.5 µM | Hs-578T 33.2 µM

Nc1n[nH]c2nc3ccc(C(F)(F)F)cc3nc12
inactive: M14 33.3 µM | EKVX 7.87 µM | ACHN 25.1 µM | CCRF-CEM 17 µM | NCI/ADR-RES 33.4 µM | HCT-116 24.7 µM | K562 42.7 µM | SK-MEL-2 23.3 µM | SNB-75 13.6 µM | HT-29 29.8 µM | TK-10 32.4 µM | SR 49.4 µM | HOP-62 18.5 µM | MDA-MB-435 64.9 µM | SN12C 26.2 µM | Malme-3M 71.6 µM | NCI-H23 22.2 µM | NCI-H522 20.3 µM | Hs-578T 28.5 µM

O=CNc1ncn[nH]1
inactive: M14 > 100 µM | EKVX > 100 µM | ACHN > 100 µM | CCRF-CEM > 100 µM | NCI/ADR-RES > 100 µM | HCT-116 > 100 µM | K562 > 100 µM | SK-MEL-2 > 100 µM | SNB-75 > 100 µM | HT-29 > 100 µM | TK-10 > 100 µM | SR > 100 µM | HOP-62 > 100 µM | MDA-MB-435 > 100 µM | SN12C > 100 µM | Malme-3M > 100 µM | NCI-H23 > 100 µM | NCI-H522 > 100 µM | Hs-578T > 100 µM

Cc1ccccc1C(=O)c1ccccc1O
inactive: M14 > 100 µM | EKVX > 100 µM | ACHN > 100 µM | CCRF-CEM > 100 µM | HCT-116 > 100 µM | K562 > 100 µM | SK-MEL-2 > 100 µM | SNB-75 > 79.6 µM | HT-29 > 100 µM | TK-10 > 100 µM | HOP-62 > 100 µM | SN12C > 100 µM | Malme-3M > 100 µM | DMS-273 > 100 µM | NCI-H23 > 100 µM

O=C(CN1CCN(Cc2ccccc2)CC1)N1CCCn2c1nc1ccccc1c2=O
inactive: M14 > 100 µM | EKVX > 100 µM | ACHN > 100 µM | CCRF-CEM > 100 µM | NCI/ADR-RES > 100 µM | HCT-116 > 100 µM | K562 > 100 µM | SK-MEL-2 > 100 µM | SNB-75 > 100 µM | HT-29 > 100 µM | TK-10 > 100 µM | SR > 100 µM | HOP-62 > 100 µM | MDA-MB-435 > 100 µM | SN12C > 100 µM | Malme-3M > 100 µM | NCI-H23 > 100 µM | NCI-H522 > 100 µM | Hs-578T > 100 µM
